Measurements: the supplement of paper PMC10307832

Tests used:
Test in all cases: relative viability (nuclei count vs DMSO), 5 days (fraction); higher = more cells survive
[1] = compound: C1=CC=C2C(=C1)N=C(S2)C(C#N)C3=NC(=NC=C3)NCCC4=CN=CC=C4 + COc1cccc2cc(-c3nc([C@H]4CC[C@H](C(=O)O)CC4)n4ncnc(N)c34)[nH]c12 [OSI-027] (partner 0.5 µM)
Outline: (§1)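 Each reported value is a median over duplicate plates. It expresses relative viability: treated-well nuclei count divided by vehicle-well nuclei count. Lung cancer cell lines in 1536-well plates were dosed by pin tool a day after seeding, alone with one drug or with a fixed anchor-drug dose plus five library-drug doses (not always all listed) in √10 steps, and nuclei were counted after 5 days.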

[2] = compound: C1=CC=C2C(=C1)N=C(S2)C(C#N)C3=NC(=NC=C3)NCCC4=CN=CC=C4 + NC(=O)Nc1cc(-c2cccc(F)c2)sc1C(=O)N[C@H]1CCCNC1 [AZD7762] (partner 0.2 µM)
Outline: as §1

Vandetanib + Foretinib = compound: COc1cc2/c(=N/c3ccc(Br)cc3F)nc[nH]c2cc1OCC1CCN(C)CC1 [Vandetanib] + COc1cc2c(Oc3ccc(NC(=O)C4(C(=O)Nc5ccc(F)cc5)CC4)cc3F)ccnc2cc1OCCCN1CCOCC1 [Foretinib] (partner 0.25 µM)
Outline: as §1

NVP-TAE684 + Dasatinib = compound: COc1cc(N2CCC(N3CCN(C)CC3)CC2)ccc1Nc1ncc(Cl)c(Nc2ccccc2S(=O)(=O)C(C)C)n1 [NVP-TAE684] + Cc1nc(Nc2ncc(C(=O)Nc3c(C)cccc3Cl)s2)cc(N2CCN(CCO)CC2)n1 [Dasatinib] (partner 0.075 µM)
Outline: as §1

Row | Cell Line | relative viability ([1]; first compound 0.005 µM) | relative viability ([1]; first compound 0.05 µM) | relative viability ([1]; first compound 0.1581 µM) | relative viability ([1]; first compound 0.5 µM) | relative viability ([2]; first compound 0.005 µM) | relative viability ([2]; first compound 0.01581 µM) | relative viability ([2]; first compound 0.05 µM) | relative viability ([2]; first compound 0.1581 µM) | relative viability ([2]; first compound 0.5 µM) | relative viability (Vandetanib + Foretinib; first compound 0.02 µM) | relative viability (Vandetanib + Foretinib; first compound 0.06325 µM) | relative viability (Vandetanib + Foretinib; first compound 0.2 µM) | relative viability (Vandetanib + Foretinib; first compound 0.6325 µM) | relative viability (Vandetanib + Foretinib; first compound 2 µM) | relative viability ([1]; first compound 0.01581 µM) | relative viability (NVP-TAE684 + Dasatinib; first compound 0.2 µM) | relative viability (NVP-TAE684 + Dasatinib; first compound 0.6325 µM) | relative viability (NVP-TAE684 + Dasatinib; first compound 2 µM)
1 | HCC-44 | 0.421 | 0.566 | 0.531 | 0.47 | 1.12 | 0.984 | 1.01 | 0.997 | 0.998 | – | – | – | – | – | – | – | – | –
2 | IA-LM | – | – | – | – | – | – | – | – | – | 1.32 | 0.981 | 1.11 | 1.33 | 1.12 | – | – | – | –
3 | SK-MES-1 | 0.483 | 0.48 | 0.722 | 0.558 | – | – | – | – | – | 0.986 | 0.802 | 1.01 | 0.83 | 0.665 | 0.659 | 0.317 | 0.159 | 0.242
4 | COR-L 105 | 0.576 | 0.71 | 0.768 | 0.547 | – | – | – | – | – | 0.91 | 1.11 | 0.329 | 0.533 | 0.358 | 0.556 | 0.256 | 0.202 | 0.204
5 | NCI-H522 | 0.674 | 0.717 | 0.713 | 0.685 | 0.885 | 0.654 | 0.768 | 0.787 | 0.839 | – | – | – | – | – | 0.681 | 1.09 | 0.983 | 0.737
6 | NCI-H1299 | – | – | – | – | – | – | – | – | – | 1.11 | 1.03 | 1.12 | 1.12 | 1.1 | – | – | – | –
7 | NCI-H2228 | 0.404 | 0.561 | 0.578 | 0.492 | – | – | – | – | – | 0.92 | 0.625 | 0.167 | 0.803 | 0.822 | 0.556 | 0.206 | 0.0665 | 0.0894
8 | SW 1573 | 0.497 | – | 0.923 | 0.557 | – | – | – | – | – | 0.965 | 0.946 | 0.81 | 0.91 | 0.951 | 0.54 | 0.236 | 0.227 | 0.0788
9 | NCI-H1623 | 0.488 | 0.397 | 0.553 | 0.345 | – | – | – | – | – | 0.913 | 0.829 | 0.8 | 0.827 | 0.764 | 0.386 | 0.514 | 0.502 | 0.439
10 | COR-L23 | 0.369 | 0.716 | 0.985 | 0.511 | – | – | – | – | – | 0.968 | 1.01 | 0.942 | 0.923 | 0.995 | 0.839 | 0.366 | 0.301 | 0.117
11 | NCI-H1563 | 0.643 | 0.705 | 0.838 | 0.618 | – | – | – | – | – | 0.959 | 0.96 | 0.885 | 0.806 | 0.866 | 0.744 | 0.443 | 0.423 | 0.382
12 | NCI-H1648 | 0.238 | 0.289 | 0.26 | 0.28 | – | 0.689 | – | 0.569 | 0.604 | – | – | – | – | – | 0.239 | – | – | –
13 | NCI-H520 | 0.199 | 0.222 | 0.32 | 0.272 | – | – | – | – | – | 0.623 | 0.682 | 0.194 | 0.754 | 0.806 | 0.261 | 0.17 | 0.196 | 0.139
14 | A549 | – | – | – | – | – | – | – | – | – | 1.05 | 0.961 | 0.992 | 0.987 | 0.854 | – | – | – | –
15 | Calu-6 | – | – | – | – | – | – | – | – | – | 0.809 | 0.86 | 0.902 | 0.853 | 0.856 | – | – | – | –
